One data set concerns the target T1, human mGlu2 receptor (Homo sapiens, UniProt Q14416).
T1 construct: expressed in transfected cells; host or cells: CHO cells
The data set can be described thus: [35S]GTPγS binding assay (mGluR2 negative allosteric modulation, glutamate ~EC80 60 μM). Type of data set: biochemical. Particulars: for Emax: read-out: GTPγS-hmGluR2 anGT Emax; for IC50: membranes from CHO cells transfected with human mGlu2 receptor, glutamate ~EC80 (60 μM), pIC50 = −log IC50 (M), read-out: GTPγS-hmGluR2 anGT pIC50 (converted). The protocol:
1) [^35S]GTPγS Binding Assay
[^35S]GTPγS Binding Assay
Total reaction volume was 200 μl. […] Membrane-bound radioactivity was counted in a Topcount.
For orientation: Binding of GTPγS marks nucleotide exchange on a G protein.

[1] abbreviates: maximal % inhibition relative to the control glutamate response (EC80 glutamate).

T1 sequence (Q14416 19-872): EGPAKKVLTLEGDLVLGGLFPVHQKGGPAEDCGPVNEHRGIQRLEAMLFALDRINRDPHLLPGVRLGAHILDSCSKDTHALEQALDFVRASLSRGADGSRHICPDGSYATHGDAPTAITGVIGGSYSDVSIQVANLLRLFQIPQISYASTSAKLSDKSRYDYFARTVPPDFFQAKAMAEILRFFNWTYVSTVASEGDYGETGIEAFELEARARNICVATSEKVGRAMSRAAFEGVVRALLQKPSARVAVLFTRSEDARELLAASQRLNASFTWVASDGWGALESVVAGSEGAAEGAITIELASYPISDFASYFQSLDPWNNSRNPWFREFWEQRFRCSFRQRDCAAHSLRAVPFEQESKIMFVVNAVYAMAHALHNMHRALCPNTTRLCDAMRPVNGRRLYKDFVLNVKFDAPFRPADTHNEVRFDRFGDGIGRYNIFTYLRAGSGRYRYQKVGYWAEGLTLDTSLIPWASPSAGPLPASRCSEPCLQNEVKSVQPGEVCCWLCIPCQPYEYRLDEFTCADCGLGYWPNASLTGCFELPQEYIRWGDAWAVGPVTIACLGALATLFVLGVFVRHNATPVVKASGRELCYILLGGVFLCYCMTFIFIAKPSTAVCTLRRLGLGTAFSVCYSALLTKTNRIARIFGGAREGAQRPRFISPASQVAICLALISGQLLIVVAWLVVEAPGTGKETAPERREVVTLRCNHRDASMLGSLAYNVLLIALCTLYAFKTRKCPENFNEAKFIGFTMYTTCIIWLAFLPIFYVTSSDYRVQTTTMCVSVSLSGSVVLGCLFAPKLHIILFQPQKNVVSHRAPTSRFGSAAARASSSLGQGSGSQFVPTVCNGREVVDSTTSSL

As usually defined, the Emax is the greatest response seen or fitted, relative to the assay's reference. Usually melting point stands for the temperature, or range, at which the solid turns liquid. `C[C@H]1CN(c2ccc(C(F)(F)F)cc2)C(=O)c2c(NC(=O)c3cn[nH]c3)cnn21` [Co. No. 79] had a melting point of 240.1 °C. In addition, the Emax at human mGlu2 receptor (setting [1]) worked out at 107%. Moreover, the IC50 at human mGlu2 receptor is 8.51e-08 M.

For the compound `C[C@H]1CN(c2ccc(C(F)(F)F)cc2)C(=O)c2c(NC(=O)c3ncc[nH]3)cnn21` [Co. No. 80], the melting point is 275.03 °C. In addition, the Emax at human mGlu2 receptor (setting [1]) was determined as 111%. Besides, the IC50 at human mGlu2 receptor was 1e-07 M.

As to `Cc1nc(C(=O)Nc2cnn3c2C(=O)N(c2ccc(C(F)(F)F)cc2)C[C@@H]3C)co1` [Co. No. 81], the melting point is 189.92 °C. Also, the Emax on human mGlu2 receptor (setting [1]) was found to be 103%. The IC50 at human mGlu2 receptor is 1.02e-07 M.

On to `C[C@H]1CN(c2ccc(C(F)(F)F)cc2)C(=O)c2c(NC(=O)c3ccc(C(N)=O)cn3)cnn21` [Co. No. 82, N2-[(7S)-7-Methyl-4-oxo-5-[4-(trifluoromethyl)phenyl]-6,7-dihydropyrazolo[1,5-a]pyrazin-3-yl]pyridine-2,5-dicarboxamide], for which the melting point turned out to be 278.58 °C. For the same compound, the maximal effect (Emax) at human mGlu2 receptor (setting [1]) was found to be 104%. Moreover, the IC50 on human mGlu2 receptor was 1.12e-07 M.

In turn, `C[C@H]1CN(c2ccc(C(F)(F)F)cc2)C(=O)c2c(NC(=O)c3c[nH]cn3)cnn21` [Co. No. 83] yielded a melting point of 277.42 °C. In addition, the maximal effect (Emax) at human mGlu2 receptor (setting [1]) was determined as 101%. Also, on human mGlu2 receptor, the IC50 is 1.12e-07 M.

In turn, `C[C@H]1CN(c2ccc(C(F)(F)F)cc2)C(=O)c2c(NC(=O)c3ccc(C#N)cn3)cnn21` [Co. No. 85] registered a melting point of 291.58 °C. In addition, the maximum response (Emax) on human mGlu2 receptor (setting [1]) was found to be 106%. Also, the IC50 at human mGlu2 receptor is 1.66e-07 M.

The compound `C[C@H]1CN(c2ccc(C(F)(F)F)cc2)C(=O)c2c(NC(=O)c3cnn(C)c3)cnn21` [Co. No. 86] had a melting point of 167.59 °C. Further, at human mGlu2 receptor (setting [1]), the maximal response (Emax) is 103%. For the same compound, on human mGlu2 receptor, the IC50 is 1.91e-07 M.

As for `C[C@H]1CN(c2ccc(C(F)(F)F)cc2)C(=O)c2c(NC(=O)Cc3ccccc3)cnn21` [Co. No. 87], the melting point was determined as 135.05 °C. Besides, on human mGlu2 receptor (setting [1]), the maximal response (Emax) worked out at 103%. Besides, the IC50 on human mGlu2 receptor was 2e-07 M.

`Cc1ncc(C(=O)Nc2cnn3c2C(=O)N(c2ccc(C(F)(F)F)cc2)C[C@@H]3C)cn1` [Co. No. 88] had a melting point of 231.1 °C. In addition, on human mGlu2 receptor (setting [1]), the Emax was 99%. In addition, the IC50 at human mGlu2 receptor is 2.24e-07 M.

`Cc1cc(C(=O)Nc2cnn3c2C(=O)N(c2ccc(C(F)(F)F)cc2)C[C@@H]3C)[nH]n1` [Co. No. 89] had a melting point of 285.92 °C. The Emax on human mGlu2 receptor (setting [1]) stood at 100%. Further, the IC50 on human mGlu2 receptor was 2.45e-07 M.

`C[C@H]1CN(c2ccc(C(F)(F)F)cc2)C(=O)c2c(NC(=O)c3cncn3C)cnn21` [Co. No. 91] showed a melting point of 162.27 °C. In addition, the Emax at human mGlu2 receptor (setting [1]) turned out to be 101%. For the same compound, the IC50 on human mGlu2 receptor was 3.47e-07 M.

Turning to `C[C@H]1CN(c2ccc(C(F)(F)F)cc2)C(=O)c2c(NC(=O)c3c[nH]c(N)n3)cnn21` [Co. No. 94, 2-Amino-N-[(7S)-7-methyl-4-oxo-5-[4-(trifluoromethyl)phenyl]-6,7-dihydropyrazolo[1,5-a]pyrazin-3-yl]-1H-imidazole-4-carboxamide], the melting point is 272.72 °C. For the same compound, the Emax at human mGlu2 receptor (setting [1]) is 98%. Also, at human mGlu2 receptor, the IC50 is 4.57e-07 M.

As for `C[C@H]1CN(c2ccccc2)C(=O)c2c(NC(=O)c3ccnc(N)c3)cnn21` [Co. No. 97], the melting point turned out to be 153.01 °C. Moreover, the Emax on human mGlu2 receptor (setting [1]) was 111%. Further, the IC50 at human mGlu2 receptor is 3.16e-07 M.

Compound `COc1cc(N2C[C@H](C)n3ncc(NC(=O)c4cc(C)nc(C)c4)c3C2=O)ccc1C(F)(F)F` [Co. No. 125] showed a melting point of 226.99 °C. The Emax on human mGlu2 receptor (setting [1]) was 104%. The IC50 at human mGlu2 receptor is 4.07e-09 M.

For `Cc1cc(C(=O)Nc2cnn3c2C(=O)N(c2ccc(C(F)(F)F)c(F)c2)C[C@@H]3C)cc(C)n1` [Co. No. 129], the melting point was determined as 148.36 °C. The Emax at human mGlu2 receptor (setting [1]) stood at 108%. In addition, at human mGlu2 receptor, the IC50 is 5.62e-09 M.

Take `Cc1cc(C(=O)Nc2cnn3c2C(=O)N(c2ccc(C(F)(F)F)c(F)c2)C[C@@H]3C)ccn1` [Co. No. 130]: the melting point stood at 134.44 °C. Further, the Emax on human mGlu2 receptor (setting [1]) was 107%. For the same compound, the IC50 on human mGlu2 receptor was 7.41e-09 M.

`Cc1cncc(C(=O)Nc2cnn3c2C(=O)N(c2ccc(C(F)(F)F)c(Cl)c2)C[C@@H]3C)c1C` [Co. No. 133] registered a melting point of 172.8 °C. Moreover, on human mGlu2 receptor (setting [1]), the Emax was 109%. Further, at human mGlu2 receptor, the IC50 was 3.31e-09 M.

Take `Cc1c(F)cncc1C(=O)Nc1cnn2c1C(=O)N(c1ccc(C(F)(F)F)c(Cl)c1)C[C@@H]2C` [Co. No. 135]: the melting point stood at 97.9 °C. Besides, on human mGlu2 receptor (setting [1]), the Emax turned out to be 108%. Moreover, the IC50 on human mGlu2 receptor was 2.29e-09 M.

For the compound `Cc1c(F)cncc1C(=O)Nc1cnn2c1C(=O)N(c1ccc(C(F)(F)F)cc1)C[C@@H]2C` [Co. No. 136], the melting point worked out at 89.55 °C. Further, the Emax at human mGlu2 receptor (setting [1]) was determined as 106%. For the same compound, at human mGlu2 receptor, the IC50 was 2.45e-08 M.

`COc1cncc(C(=O)Nc2cnn3c2C(=O)N(c2ccc(Cl)cc2)C[C@@H]3C)c1` [Co. No. 137] gave a melting point of 153.4 °C. Besides, the maximum response (Emax) on human mGlu2 receptor (setting [1]) was 106%. Further, the IC50 at human mGlu2 receptor was 1.74e-08 M.

As for `COCc1cncc(C(=O)Nc2cnn3c2C(=O)N(c2ccc(C(F)(F)F)cc2)C[C@@H]3C)c1` [Co. No. 138], the melting point was found to be 149.93 °C. For the same compound, the maximum response (Emax) on human mGlu2 receptor (setting [1]) came to 106%. Besides, the IC50 at human mGlu2 receptor is 2.95e-08 M.

For `COCc1cncc(C(=O)Nc2cnn3c2C(=O)N(c2ccc(C(F)(F)F)c(Cl)c2)C[C@@H]3C)c1` [Co. No. 139], the melting point is 170.75 °C. The Emax at human mGlu2 receptor (setting [1]) is 108%. Further, on human mGlu2 receptor, the IC50 was 3.02e-09 M.

`Cc1cc(C(=O)Nc2cnn3c2C(=O)N(c2ccc(C(F)(F)F)c(Cl)c2)C[C@@H]3C)cc(Cl)n1` [Co. No. 142]: the melting point turned out to be 124.01 °C. In addition, the Emax on human mGlu2 receptor (setting [1]) amounted to 109%. Moreover, the IC50 on human mGlu2 receptor was 2.45e-09 M.

As to `C[C@H]1CN(c2ccc(C(F)(F)F)cc2)C(=O)c2c(NC(=O)c3cccc(O)c3)cnn21` [Co. No. 144], the melting point turned out to be 240.46 °C. Besides, the maximum response (Emax) on human mGlu2 receptor (setting [1]) is 115%. For the same compound, on human mGlu2 receptor, the IC50 was 2.04e-09 M.

In turn, `Cc1nccc(C(=O)Nc2cnn3c2C(=O)N(c2ccc(C(F)(F)F)cc2)C[C@@H]3C)c1C` [Co. No. 156] displayed a melting point of 182.69 °C. Moreover, the “GTPγS-hmGluR2 anGT Emax” value at human mGlu2 receptor (setting [1]) turned out to be 113%. In addition, the IC50 on human mGlu2 receptor was 2.4e-08 M.

As to `Cc1cc(C(=O)Nc2cnn3c2C(=O)N(c2ccc(C(F)(F)F)c(Cl)c2)C[C@@H]3C)c(C)cn1` [Co. No. 158], the melting point was 130.79 °C. The maximum response (Emax) at human mGlu2 receptor (setting [1]) was 112%. The IC50 at human mGlu2 receptor was 4.07e-09 M.

For `CC(=O)Nc1ccc(C(=O)Nc2cnn3c2C(=O)N(c2ccc(C(F)(F)F)cc2)C[C@@H]3C)cn1` [Co. No. 159, 6-acetamido-N-[(7S)-7-methyl-4-oxo-5-[4-(trifluoromethyl)phenyl]-6,7-dihydropyrazolo[1,5-a]pyrazin-3-yl]pyridine-3-carboxamide], the melting point was 265 °C. Besides, the Emax at human mGlu2 receptor (setting [1]) is 106%. In addition, the IC50 at human mGlu2 receptor was 6.03e-09 M.

As for `CC(=O)Nc1cnn2c1C(=O)N(c1ccc(C(F)(F)F)cc1)C[C@@H]2C` [Co. No. 160, N-[(7S)-7-methyl-4-oxo-5-[4-(trifluoromethyl)phenyl]-6,7-dihydropyrazolo[1,5-a]pyrazin-3-yl]acetamide], the melting point was determined as 142.82 °C. Besides, the maximal effect (Emax) at human mGlu2 receptor (setting [1]) was 101%. The IC50 on human mGlu2 receptor is 6.31e-07 M.

The values are drawn from patent US10519162B2, “6,7-dihydropyrazolo[1,5-α]pyrazin-4(5H)-one compounds and their use as negative allosteric modulators of mGluR2 receptors” (Janssen Pharmaceutica NV, priority 2014, dated 2019).
